Drawing on US5100880A, “Novel betalactam elastase inhibitors containing phosphorous acid derivatives at the 4-position of the 2-azetidinone” (Merck & Co., Inc., priority 1991, dated 1992), this text covers kinact/KI for 2 compounds.

The target in the test is T1, human granulocyte elastase (Homo sapiens, UniProt P08246).
T1 construct: Crude extract of human polymorphonuclear leukocytes (PMN) containing elastase activity; endogenous in cells; host or cells: human polymorphonuclear leukocytes (PMN), crude extract
T1 sequence (P08246 30-247 limits assumed): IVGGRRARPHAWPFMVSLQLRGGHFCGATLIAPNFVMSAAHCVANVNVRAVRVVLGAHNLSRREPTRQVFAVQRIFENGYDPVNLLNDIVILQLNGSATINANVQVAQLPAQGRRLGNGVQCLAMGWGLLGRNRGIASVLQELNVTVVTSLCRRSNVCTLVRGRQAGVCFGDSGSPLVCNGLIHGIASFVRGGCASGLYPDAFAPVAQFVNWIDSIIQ
Briefly: Inhibition of human polymorphonuclear leukocyte elastase via hydrolysis of Boc-AAPAN or Boc-AAPVN. The note with it: crude extract of human PMN; 0.05M TES buffer pH 7.5; substrate 0.2 mM Boc-AAPAN or Boc-AAPVN; read-out: kobs /I, second order rate constant for inactivation of the enzyme. The class given is biochemical. The protocol:
Enzyme Assays for the Inhibition of Human Polymorphonuclear Leukocyte Elastase Via Hydrolysis of N-t-Boc-alanyl-alanyl-prolylalanine-p-nitroanilide (Boc-AAPAN) or N-t-Boc-alanyl-prolylvaline-p-nitroanilide (Boc-AAPVN) Reagent
0.05M TES (N-tris[hydroxymethyl]methyl-2-amino-ethanesulfonic acid) Buffer, pH 7.5.
0.2 mM Boc-AAPAN or Boc-AAPVN.
To prepare substrate, the solid was first dissolved in 10.0 ml DMSO. Buffer at pH 7.5 was then added to a final volume of 100 ml.
Crude extract of human polymorphonuclear leukocytes (PMN) containing elastase activity.
Inhibitors (azetidinones) to be tested dissolved in DMSO just before use.
To 1.0 ml of 0.2 mM Boc-AAPAN in a cuvette, 0.01-0.1 ml of DMSO with or without inhibitor was added. After mixing, a measurement was taken at 410 mμ to detect any spontaneous hydrolysis due to presence of test compound. 0.05 Milliliters of PMN extract was then added and the ΔOD/min at 410 mμ was measured and recorded. Beckman model 35 spectrophotometer was used.
Results are also expressed as Ki, the micromolar concentration of the inhibitor (μM) giving 50% of the control enzyme activity; or as ^k obs/I which is the second order rate constant in per mole per second for inactivation of the enzyme.
The elastase activity in the crude PMN extract may vary from one preparation to another. […]

For `CCCC(NC(=O)N1C(=O)C(CC)(CC)C1Oc1ccc(CP(=O)(OCC)OCC)cc1)c1ccc(C)cc1` [Example 1, (4S)-3,3-Diethyl-1-[(R)-α-n-propyl(4-methyl)-benzylaminocarbonyl)]-4-[4-(diethoxyphosphinylmethyl)-phenoxy]-azetidin-2-one], the kinact/KI is 1.2e+06 M⁻¹ s⁻¹.
`CCCC(NC(=O)N1C(=O)C(CC)(CC)C1Oc1ccc(CP(=O)(O)O)cc1)c1ccc(C)cc1` [Example 2, (4S)-3,3-Diethyl-1-[(R)-α-n-propyl-(4-methyl)-benzylaminocarbonyl)]-4-[4-(dihydroxyphosphinylmethyl)phenoxy]-azetidin-2-one]: the kinact/KI came out at 220000 M⁻¹ s⁻¹.
